Test results: patent US9328099B2, “Cyanomethylpyrazole carboxamides as janus kinase inhibitors” (Merck Sharp & Dohme Corp., priority 2011, dated 2016)

What was measured:
JAK1 = JAK1 (Homo sapiens (Human), UniProt P23458); test: Jak Biochemical HTRF Assay, JAK1; conditions: HTRF biochemical assay, GST-tagged catalytic domain; top concentration tested […]; read-out: JAK1 IC50
Text: (§1) Jak Biochemical HTRF Assay Protocol
(§2) Subsequent reagent additions employed an Agilent Bravo.

JAK2 = JAK2 (Homo sapiens (Human), UniProt O60674); test: Jak Biochemical HTRF Assay, JAK2; conditions: HTRF biochemical assay, GST-tagged catalytic domain; top concentration tested […]
JAK2, sequence (O60674 849-1124): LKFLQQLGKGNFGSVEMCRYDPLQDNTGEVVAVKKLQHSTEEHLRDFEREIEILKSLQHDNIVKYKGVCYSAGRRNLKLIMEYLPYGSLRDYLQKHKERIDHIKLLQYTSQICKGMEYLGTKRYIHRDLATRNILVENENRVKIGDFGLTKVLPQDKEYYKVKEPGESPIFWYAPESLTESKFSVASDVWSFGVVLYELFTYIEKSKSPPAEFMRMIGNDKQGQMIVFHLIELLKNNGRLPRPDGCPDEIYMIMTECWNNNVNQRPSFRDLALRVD
Text: as §1, §2

JAK1, sequence (P23458 875-1153): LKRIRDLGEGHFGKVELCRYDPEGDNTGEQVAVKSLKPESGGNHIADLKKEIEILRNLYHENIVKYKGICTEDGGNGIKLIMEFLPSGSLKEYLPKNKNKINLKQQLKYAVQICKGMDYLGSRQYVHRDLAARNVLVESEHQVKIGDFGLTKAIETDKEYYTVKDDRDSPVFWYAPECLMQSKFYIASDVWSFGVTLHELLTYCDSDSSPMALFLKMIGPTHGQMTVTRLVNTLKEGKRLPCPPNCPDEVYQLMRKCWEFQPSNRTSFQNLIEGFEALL

In the case of `CC(C)(C)OC(=O)N1CCC(CC#N)(n2cc(C(N)=O)c(Nc3ccnc(N)c3)n2)CC1` [Example 9-14, tert-butyl 4-{3-[(2-aminopyridin-4-yl)amino]-4-carbamoyl-1H-pyrazol-1-yl}-4-(cyanomethyl)piperidine-1-carboxylate], the IC50 (JAK1) is reported as 0.2 nM and the IC50 (JAK2) is reported as 3 nM.

With `CC(C)(C)OC(=O)N1CCC(CC#N)(n2cc(C(N)=O)c(Nc3ccc(S(=O)(=O)C(F)F)cc3)n2)CC1` [Example 9-16, tert-butyl 4-[4-carbamoyl-3-({4-[(difluoromethyl)sulfonyl]phenyl}amino)-1H-pyrazol-1-yl]-4-(cyanomethyl)piperidine-1-carboxylate] the IC50 (JAK1) was 0.09 nM and the IC50 (JAK2) was 0.6 nM.

`Cc1cc(Nc2nn(C3(CC#N)CCN(C(=O)OC(C)(C)C)CC3)cc2C(N)=O)ccn1` [Example 9-17, tent-butyl 4-{4-carbamoyl-3-[(2-methylpyridin-4-yl)amino]-1H-pyrazol-1-yl}-4-(cyanomethyl)piperidine-1-carboxylate] gave an IC50 (JAK1) of 15 nM and an IC50 (JAK2) of 133 nM.

For `CC(C)(C)OC(=O)N1CCC(CC#N)(n2cc(C(N)=O)c(Nc3ccnc(CO)c3)n2)CC1` [Example 9-18, tert-butyl 4-(4-carbamoyl-3-{[2-(hydroxymethyl)pyridin-4-yl]amino}-1H-pyrazol-1-yl)-4-(cyanomethyl)piperidine-1-carboxylate], the IC50 (JAK1) was 6 nM and the IC50 (JAK2) was 101 nM.

Compound `CC(C)(C)OC(=O)N1CCC(CC#N)(n2cc(C(N)=O)c(Nc3ccc(S(N)(=O)=O)cc3)n2)CC1` [Example 9-20, tert-butyl 4-{4-carbamoyl-3-[(4-sulfamoylphenyl)amino]-1H-pyrazol-1-yl}-4-(cyanomethyl)piperidine-1-carboxylate] has an IC50 (JAK1) of 0.1 nM and an IC50 (JAK2) of 1 nM.

Work on `CN(C)S(=O)(=O)c1ccc(Nc2nn(C3(CC#N)CCN(C(=O)OC(C)(C)C)CC3)cc2C(N)=O)cc1` [Example 9-21, tert-butyl 4-(4-carbamoyl-3-{[4-(dimethylsulfamoyl)phenyl]amino}-1H-pyrazol-1-yl)-4-(cyanomethyl)piperidine-1-carboxylate] yielded an IC50 (JAK1) of 0.3 nM and an IC50 (JAK2) of 0.8 nM.

With `CC(C)(C)OC(=O)N1CCC(CC#N)(n2cc(C(N)=O)c(Nc3ccc(C(=O)N4CCOCC4)c(F)c3)n2)CC1` [Example 9-24, tert-butyl 4-(4-carbamoyl-3-{[3-fluoro-4-(morpholin-4-ylcarbonyl)phenyl]amino}-1H-pyrazol-1-yl)-4-(cyanomethyl)piperidine-1-carboxylate] the IC50 (JAK1) was 0.2 nM and the IC50 (JAK2) was 0.7 nM.

`CC(C)(C)OC(=O)N1CCC(CC#N)(n2cc(C(N)=O)c(Nc3ccc(C(=O)N4CCOCC4)cc3)n2)CC1` [Example 9-25, tert-butyl 4-(4-carbamoyl-3-{[4-(morpholin-4-ylcarbonyl)phenyl]amino}-1H-pyrazol-1-yl)-4-(cyanomethyl)piperidine-1-carboxylate] gave an IC50 (JAK1) of 0.3 nM and an IC50 (JAK2) of 0.7 nM.

`CC(C)(C)OC(=O)N1CCC(CC#N)(n2cc(C(N)=O)c(Nc3ccc(C#N)c(F)c3)n2)CC1` [Example 9-26, tert-butyl 4-{4-carbamoyl-3-[(4-cyano-3-fluorophenyl)amino]-1H-pyrazol-1-yl}-4-(cyanomethyl)piperidine-1-carboxylate] showed an IC50 (JAK1) of 0.4 nM and an IC50 (JAK2) of 7 nM.

Compound `CC(C)(C)OC(=O)N1CCC(CC#N)(n2cc(C(N)=O)c(Nc3ccc(F)c(F)c3)n2)CC1` [Example 9-28, tert-butyl 4-{4-carbamoyl-3-[(3,4-difluorophenyl)amino]-1H-pyrazol-1-yl}-4-(cyanomethyl)piperidine-1-carboxylate] has an IC50 (JAK1) of 1 nM and an IC50 (JAK2) of 24 nM.

With `CC(C)(C)OC(=O)N1CCC(CC#N)(n2cc(C(N)=O)c(Nc3ccnc(Cl)c3)n2)CC1` [Example 9-29, tert-butyl 4-{4-carbamoyl-3-[(2-chloropyridin-4-yl)amino]-1H-pyrazol-1-yl}-4-(cyanomethyl)piperidine-1-carboxylate] the IC50 (JAK1) was 0.1 nM and the IC50 (JAK2) was 3 nM.
